Measured values taken from patent US9045415B2, “Targeting of EWS-FLI1 as anti-tumor therapy” (Georgetown University, priority 2006, dated 2015).
Several values for one entry are separate records, joined by “and”; a condition that tells them apart may be missing. Identical values can stand only once. Entries after “also recorded” stand apart in the source; their conditions may differ. Like-named read-outs stand apart in the source and are kept apart here.

Columns and labels:
TC32 cells = test: Monolayer cell growth (MTT or WST), TC32; assay type: cell-based; conditions: for IC50: Homo sapiens, TC-32, 168 h, seven days in culture, read-out: IC50, TC32 cells growing in monolayer
Procedure: (§1) In FIG. 13A, recombinant EWS-FLI1 was treated with NSC635437 for 30 minutes. GST-RHA (630-1020) was added and the complexes were then precipitated with antibody to EWS-FLI1 and Protein G beads. Resolved complexes showing the immunoprecipitated complex control without compound are in lanes 3 (0.1% DMSO) and 5 (0.01% DMSO). […] ESFT TC32 (◯) and neuroblastoma SK-N-AS (▪) were grown for 72 hours in the continuous presence of NSC635437. Cells were incubated in MTT reagent for 4 hours and the dried precipitate was dissolved isopropanol and the absorbance read at 570 nm. Each cell line was standardized to the growth of the DMSO control.
FIG. 30 provides data to show E9R peptide prevents EWS-FLI1 binding to RHA with specific detrimental effects upon ESFT growth and transformation. […] Scale bar equals 20 μm. […] Only expression of EGFP-E9R in TC71 reduced anchorage independent growth. […] Scale bar equals 20 μm.
FIG. 33 provides data showing YK-4-279 is potent and specific inhibitor of ESFT. […] Cell number was measured by MTT or WST reduction after seven days in culture. […] FIG. 33D cell lines expressing EWS-FLI1 compared to non-EWS-FLI1 malignant cell lines following 3 days in culture to establish the IC50 using WST assay. […] Graph plots level of fluorescence in treated divided by untreated lysate. […] Scale bar equals 200 μm.

RHA binding to EWS-FLI1 = test: Solution immunoprecipitation of GST-RHA with recombinant EWS-FLI1; design: species or system human; conditions: for binding of GST-RHA (647-1075) to full-length recombinant EWS-FLI1: cell-free assay
Procedure: E9RP is the peptide region of RHA (E9R; SEQ ID NO: 29) fused to the Penetratin peptide (from the Antennapedia homeodomain; SEQ ID NO: 34). Immunoprecipitation of GST-RHA using recombinant EWS-FLI1 bound to a FLI1 antibody. […] E9RP is the sequence of aa 823-832 of human RHA that were synthesized.
as §1
Protein lysates and immunoprecipitations were performed as previously published (Uren et al (2005)). Recombinant GST-RHA (647-1075) was prepared from crude bacterial extracts without further purification.
Reagents were developed to block RHA binding to EWS-FLI1 since RHA is necessary for optimal EWS-FLI1 activity. The E9R peptide corresponds to amino acids 823 to 832, located in the proximal HA2 region of RHA (FIG. 29A). A cell-free protein interaction assay was developed to test whether E9R peptide inhibits RHA binding to EWS-FLI1. […] It was determined whether disrupted EWS-FLI1/RHA binding inhibited cell growth.

recombinant EWS-FLI1 = molecular target: T1, recombinant EWS-FLI1 (Homo sapiens, UniProt Q01543+Q01844); test: Surface plasmon resonance (Biacore) binding to EWS-FLI1
T1 sequence (Q01543 1-452): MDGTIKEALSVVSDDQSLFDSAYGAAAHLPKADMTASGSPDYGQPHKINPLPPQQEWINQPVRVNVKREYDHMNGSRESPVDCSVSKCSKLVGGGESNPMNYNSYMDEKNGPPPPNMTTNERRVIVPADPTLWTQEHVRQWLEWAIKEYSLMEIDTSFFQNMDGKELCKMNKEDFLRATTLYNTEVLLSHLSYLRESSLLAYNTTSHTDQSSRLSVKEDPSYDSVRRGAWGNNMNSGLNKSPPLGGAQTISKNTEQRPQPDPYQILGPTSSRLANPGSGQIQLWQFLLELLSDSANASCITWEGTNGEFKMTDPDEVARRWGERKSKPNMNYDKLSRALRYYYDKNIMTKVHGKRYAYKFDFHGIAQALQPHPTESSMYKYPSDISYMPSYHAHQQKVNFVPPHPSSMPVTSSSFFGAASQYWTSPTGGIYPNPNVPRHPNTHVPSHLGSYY
T1 sequence (Q01844 1-656): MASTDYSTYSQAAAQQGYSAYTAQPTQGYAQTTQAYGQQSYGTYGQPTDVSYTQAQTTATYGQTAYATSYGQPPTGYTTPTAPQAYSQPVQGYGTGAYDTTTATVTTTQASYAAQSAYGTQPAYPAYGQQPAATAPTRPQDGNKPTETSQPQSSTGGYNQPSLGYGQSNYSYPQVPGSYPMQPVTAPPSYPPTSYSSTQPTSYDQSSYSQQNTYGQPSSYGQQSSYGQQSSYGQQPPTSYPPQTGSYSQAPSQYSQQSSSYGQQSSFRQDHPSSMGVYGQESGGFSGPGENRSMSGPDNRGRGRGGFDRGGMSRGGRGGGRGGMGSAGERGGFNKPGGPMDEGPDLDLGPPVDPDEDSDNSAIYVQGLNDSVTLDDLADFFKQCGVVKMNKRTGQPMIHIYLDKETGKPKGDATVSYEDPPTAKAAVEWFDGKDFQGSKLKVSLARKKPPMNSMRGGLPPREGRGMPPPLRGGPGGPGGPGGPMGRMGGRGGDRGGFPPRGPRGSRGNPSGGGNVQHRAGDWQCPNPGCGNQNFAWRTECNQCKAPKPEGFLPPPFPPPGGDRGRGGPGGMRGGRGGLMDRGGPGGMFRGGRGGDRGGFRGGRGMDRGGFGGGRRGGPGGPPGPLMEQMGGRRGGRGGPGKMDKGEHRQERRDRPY
Procedure: Antp is conjugated to the amino terminal of all peptides used in these studies. Recombinant EWS-FLI1 (MW 55 kDa) was covalently linked to a CM5 chip at a density of 1200 RU, and E9RP (MW 4 kDa) was evaluated for binding. The E9RP analyte concentrations ranged from 0.03-30 μM, and all are shown in duplicate. E9RP bound to EWS-FLI1 with a KD of 4.0 μM.
An assay that will identify whether a peptide can disrupt RHA from interacting with EWS-FLI1 was developed. The Biacore device is a biosensor that utilizes surface plasmon resonance (SPR) to measure the strength of molecular interactions. SPR is the sensitive measurement of […] light based upon alterations of surface characteristics that change with molecules binding to a surface. The Biacore device combines SPR with a microfluidic system.
The KD of E9RP binding to EWS-FLI1 was calculated to be 4.0 μM (FIG. 4).
A surface plasmon resonance assay using the Biacore T100 was established with EWS-FLI1, prepared in our laboratory as previously published (Uren, A., Tcherkasskaya, O. & Toretsky, J. A. Recombinant EWS-FLI1 oncoprotein activates transcription. Biochemistry 43, 13579-13589 (2004)). DNA oligonucleotides were used to quality control the proper conformation of EWS-FLI1 on the surface of a CM5 chip. Small molecules obtained from the Developmental Therapeutics Program of the National Cancer Institute, NIH (http://dtp.nci.nih.gov/branches/dscb/repo_open.html) were prioritized based upon their molecular weight and solubility. An initial screening of molecules was performed at 1 or 10 μM compound, based on solubility. We used a model that compares the actual binding maximum (actual RU) with the theoretical binding maximum (RUtheor). […] Hits (RUactual to RUtheor of 0.7-2.0) were then reviewed by a team of medicinal chemists and those with structural potentials were selected for further study. Selected molecules were tested in vitro in a solution coimmunoprecipitation assay using recombinant EWS-FLI1 and GST-RHA (647-1075).

[1] = FIG. 24 experiment, read-out: KD
[2] = SPR, EWS-FLI1 immobilized on CM5 chip, read-out: KD of binding to EWS-FLI1

Compound | cell growth (MTT) (TC32 cells; 72 hours continuous presence) | IC50 (TC32 cells) [nM] | RHA binding to EWS-FLI1 in solution binding assay (RHA binding to EWS-FLI1; 10 μM) | complex formation compared to DMSO matched controls (RHA binding to EWS-FLI1; 10 μM and 1 μM, GST-RHA (630-1020)) | binding of GST-RHA (647-1075) to full-length recombinant EWS-FLI1 (RHA binding to EWS-FLI1) | Kd (recombinant EWS-FLI1; [1]) | Kd (recombinant EWS-FLI1; [2]) | RUactual:RUtheor (recombinant EWS-FLI1; library screening, single concentration)
O=C(CC1(O)C(=O)Nc2c(Cl)ccc(Cl)c21)c1ccc(Cl)cc1 (stereo not drawn) [NSC635437, 4,7-Dichloro-3-[2-(4-chlorophenyl)-2-oxoethyl]-3-hydroxyl-1,3-dihydro-2H-indol-2-one] | specifically cytotoxic to ESFT cells; also recorded: reduces ESFT | 20000 | block the binding of RHA to EWS-FLI1 | decreased complex formation | reduced the direct binding | 1210 nM and 2020 nM | 2340 nM and 2000 nM | 0.9
COc1ccc(C(=O)CC2(O)C(=O)Nc3c(Cl)ccc(Cl)c32)cc1 (stereo not drawn) [YK-4-279, 4,7-Dichloro-3-hydroxy-3-[2-(4-methoxyphenyl)-2-oxoethyl]-1,3-dihydro-2H-indol-2-one] | – | 900 | – | – | significantly reduced the protein-protein interaction | 4560 nM | 9480 nM | –
